The test system of the assay is CD2F1 mice, L1210 leukemia ip, survival T/C. Briefly: NCI In Vivo Anticancer Drug Screen. Data for tumor model L1210 Leukemia (intraperitoneal) in CD2F1 (CDF1) mice. The settings on record: higher = longer survival. In outline:
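Transplantable tumor in mice; compound-treated vs vehicle-treated groups. Read-out = treated/control ratio of the measured endpoint.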

Setting [1] is: endpoint: mean survival time, dose: 100.0 mg/kg/injection, schedule: Q04DX003 (ip), vehicle: saline.
The mark [2] stands for this setting: endpoint: mean survival time, dose: 200.0 mg/kg/injection, schedule: Q04DX003 (ip), vehicle: saline.
The mark [3] stands for this setting: endpoint: mean survival time, dose: 400.0 mg/kg/injection, schedule: Q04DX003 (ip), vehicle: saline.
The mark [4] stands for this setting: endpoint: mean survival time, dose: 100.0 mg/kg/injection, schedule: Q01DX009 (ip), vehicle: saline with Tween-80.
Where [5] appears, read: endpoint: mean survival time, dose: 200.0 mg/kg/injection, schedule: Q01DX009 (ip), vehicle: saline with Tween-80.
[6] abbreviates: endpoint: mean survival time, dose: 400.0 mg/kg/injection, schedule: Q01DX009 (ip), vehicle: saline with Tween-80.
[7] abbreviates: endpoint: mean survival time, dose: 100.0 mg/kg/injection, schedule: Q04DX002 (ip), vehicle: Klucel (hydroxypropylcellulose) (HPC).
The mark [8] stands for this setting: endpoint: mean survival time, dose: 100.0 mg/kg/injection, schedule: Q04DX003 (ip), vehicle: saline with Tween-80.
Setting [9] is: endpoint: mean survival time, dose: 200.0 mg/kg/injection, schedule: Q04DX003 (ip), vehicle: saline with Tween-80.
Where [10] appears, read: endpoint: mean survival time, dose: 400.0 mg/kg/injection, schedule: Q04DX003 (ip), vehicle: saline with Tween-80.
Setting [11] is: endpoint: mean survival time, dose: 25.0 mg/kg/injection, schedule: Q04DX003 (ip), vehicle: saline.
[12] abbreviates: endpoint: mean survival time, dose: 50.0 mg/kg/injection, schedule: Q04DX003 (ip), vehicle: saline.
Where [13] appears, read: endpoint: mean survival time, dose: 100.0 mg/kg/injection, schedule: Q01DX001 (ip), vehicle: saline with Tween-80.

Where “and” joins values, the source holds several entries; their conditions need not be identical. Identical values can stand only once. Toxic doses and inconclusive results are not listed.

As to `O=[N+]([O-])c1ccc(N/N=C\c2ccc3ccccc3n2)cc1`, the T/C runs as follows: under setting [1], 106 % of control; under setting [2], 109 % of control; under setting [3], 101 % of control.
Take `Cc1ccc(C#CC(C)(C)O)cn1`: the T/C by setting is: under setting [4], 94 % of control; under setting [5], 102 % of control; under setting [6], 122 % of control.
Turning to `CNc1ncnc2c1cnn2C1OC(CO)C(O)C1O` (stereo not drawn), the T/C runs as follows: (endpoint: mean survival time, dose: 12.5 mg/kg/injection, schedule: Q01DX005 (ip), vehicle: water) 93 % of control; (endpoint: mean survival time, dose: 25.0 mg/kg/injection, schedule: Q01DX005 (ip), vehicle: water) 102 % of control; (endpoint: mean survival time, dose: 50.0 mg/kg/injection, schedule: Q01DX005 (ip), vehicle: water) 104 % of control.
Regarding `O=c1[nH]c(=O)n(C2CC(O)C(CO)O2)cc1COCc1ccccc1` (stereo not drawn), the T/C is 95 % of control (endpoint: mean survival time, dose: 100.0 mg/kg/injection, schedule: Q01DX005 (ip), vehicle: saline); 105 % of control and 97 % of control (endpoint: mean survival time, dose: 200.0 mg/kg/injection, schedule: Q01DX005 (ip), vehicle: saline).
Take `CN1CCc2[nH]c3ccccc3c2C1`: the T/C is 93 % of control (endpoint: mean survival time, dose: 75.0 mg/kg/injection, schedule: Q01DX001 (ip), vehicle: other); 95 % of control under setting [7]; 93 % of control (endpoint: mean survival time, dose: 150.0 mg/kg/injection, schedule: Q01DX001 (ip), vehicle: other); 103 % of control (endpoint: mean survival time, dose: 200.0 mg/kg/injection, schedule: Q04DX002 (ip), vehicle: Klucel (hydroxypropylcellulose) (HPC)).
For the compound `CC(C)N1CCOCC1`, the T/C (endpoint: mean survival time, dose: 100.0 mg/kg/injection, schedule: Q04DX003 (ip), vehicle: acetone) was 100 % of control.
`C[n+]1ccccc1SC12CC3CC(CC(C3)C1)C2`: the T/C runs as follows: (endpoint: mean survival time, dose: 2.5 mg/kg/injection, schedule: Q01DX009 (ip), vehicle: Klucel (hydroxypropylcellulose) (HPC)) 98 % of control; (endpoint: mean survival time, dose: 5.0 mg/kg/injection, schedule: Q01DX009 (ip), vehicle: Klucel (hydroxypropylcellulose) (HPC)) 98 % of control; (endpoint: mean survival time, dose: 10.0 mg/kg/injection, schedule: Q01DX009 (ip), vehicle: Klucel (hydroxypropylcellulose) (HPC)) 103 % of control.
Take `CCCCC(CCCC)(C(=O)NC)c1ccccc1`: the T/C runs as follows: under setting [8], 95 % of control; under setting [9], 97 % of control; under setting [10], 90 % of control.
Regarding `Nc1nc(N)c2nc(-c3ccccc3Cl)c(-c3ccccc3Cl)nc2n1`, the T/C is, setting by setting: (endpoint: mean survival time, dose: 25.0 mg/kg/injection, schedule: Q04DX002 (ip), vehicle: Klucel (hydroxypropylcellulose) (HPC)) 91 % of control; (endpoint: mean survival time, dose: 50.0 mg/kg/injection, schedule: Q04DX002 (ip), vehicle: Klucel (hydroxypropylcellulose) (HPC)) 98 % of control; under setting [7], 95 % of control.
In the case of `Nc1ncnc2c1ncn2CC(N)C(=O)O` (stereo not drawn), the T/C (endpoint: mean survival time, dose: 100.0 mg/kg/injection, schedule: Q01DX001 (ip), vehicle: saline) is 103 % of control; the T/C (endpoint: mean survival time, dose: 200.0 mg/kg/injection, schedule: Q01DX001 (ip), vehicle: saline) is 107 % of control; the T/C (endpoint: mean survival time, dose: 400.0 mg/kg/injection, schedule: Q01DX001 (ip), vehicle: saline) is 105 % of control.
On to `OC12Cc3ccccc3C1=NN(c1ccccc1)C2c1ccccc1` (stereo not drawn), for which the T/C is 91 % of control under setting [4] and 86 % of control under setting [6].
Regarding `Brc1ccc([Si](c2ccccc2)(c2ccccc2)c2ccc(Br)cc2)cc1`, the T/C by setting is: under setting [8], 102 % of control; under setting [9], 108 % of control; under setting [10], 106 % of control.
In the case of `O/N=C1/CCCC/C1=C/c1ccccc1Cl`, the T/C is 95 % of control under setting [4], 97 % of control under setting [5] and 100 % of control under setting [6].
As to `CN(C)CCOc1cccc(Br)c1`, the T/C runs as follows: under setting [11], 100 % of control; under setting [12], 100 % of control; under setting [1], 100 % of control.
Consider `CC(C)=NO`, for which the T/C reads like this: under setting [8], 109 % of control; under setting [9], 90 % of control.
Turning to `CC1(C(=O)O)OCCO1`, the T/C is, setting by setting: under setting [1], 97 % of control; under setting [2], 103 % of control; under setting [3], 96 % of control.
As to `[Cl][Pt+2][Cl].[NH-]CC1(C[NH-])CCC1`, the T/C (endpoint: mean survival time, dose: 3.12 mg/kg/injection, schedule: Q04DX003 (ip), vehicle: saline) was 111 % of control; the T/C (endpoint: mean survival time, dose: 12.5 mg/kg/injection, schedule: Q04DX003 (ip), vehicle: saline) was 229 % of control; the T/C under setting [11] is 272 % of control; the T/C under setting [12] is 174 % of control and 231 % of control; the T/C under setting [1] was 164 % of control and 335 % of control; the T/C under setting [2] was 90 % of control. Further, the T/C runs as follows: (endpoint: median survival time, dose: 0.1 mg/kg/injection, schedule: Q01DX009 (ip), vehicle: Klucel (hydroxypropylcellulose) (HPC)) 111 % of control; (endpoint: median survival time, dose: 0.2 mg/kg/injection, schedule: Q01DX009 (ip), vehicle: Klucel (hydroxypropylcellulose) (HPC)) 111 % of control; (endpoint: median survival time, dose: 1.5 mg/kg/injection, schedule: Q01DX009 (ip), vehicle: carboxymethylcellulose (CMC)) 239 % of control; (endpoint: median survival time, dose: 3.0 mg/kg/injection, schedule: Q01DX009 (ip), vehicle: carboxymethylcellulose (CMC)) 281 % of control; (endpoint: median survival time, dose: 3.12 mg/kg/injection, schedule: Q01DX009 (ip), vehicle: Klucel (hydroxypropylcellulose) (HPC)) 222 % of control and 320 % of control; (endpoint: median survival time, dose: 3.13 mg/kg/injection, schedule: Q01DX009 (ip), vehicle: Klucel (hydroxypropylcellulose) (HPC)) 169 % of control and 206 % of control. In addition, the T/C runs as follows: (endpoint: median survival time, dose: 6.0 mg/kg/injection, schedule: Q01DX001 (ip), vehicle: carboxymethylcellulose (CMC)) 171 % of control; (endpoint: median survival time, dose: 8.0 mg/kg/injection, schedule: Q01DX001 (ip), vehicle: other) 186 % of control; (endpoint: median survival time, dose: 9.0 mg/kg/injection, schedule: Q01DX001 (ip), vehicle: carboxymethylcellulose (CMC)) 176 % of control; (endpoint: median survival time, dose: 9.0 mg/kg/injection, schedule: Q01DX009 (ip), vehicle: carboxymethylcellulose (CMC)) 114 % of control; (endpoint: median survival time, dose: 12.0 mg/kg/injection, schedule: Q01DX001 (ip), vehicle: carboxymethylcellulose (CMC)) 203 % of control; (endpoint: median survival time, dose: 12.0 mg/kg/injection, schedule: Q01DX001 (ip), vehicle: other) 212 % of control. The T/C reads like this: (endpoint: median survival time, dose: 15.0 mg/kg/injection, schedule: Q01DX001 (ip), vehicle: carboxymethylcellulose (CMC)) 203 % of control; (endpoint: median survival time, dose: 16.0 mg/kg/injection, schedule: Q01DX001 (ip), vehicle: other) 242 % of control; (endpoint: median survival time, dose: 20.0 mg/kg/injection, schedule: Q01DX001 (ip), vehicle: other) 103 % of control.
Turning to `Nc1nc(-c2cccc([N+](=O)[O-])c2)c(N=Nc2ccccc2)s1`, the T/C under setting [13] was 95 % of control and the T/C (endpoint: mean survival time, dose: 200.0 mg/kg/injection, schedule: Q01DX001 (ip), vehicle: saline with Tween-80) was 100 % of control.
Take `Cc1ccccc1S(=O)(=O)N(C)C`: the T/C is 97 % of control (endpoint: mean survival time, dose: 100.0 mg/kg/injection, schedule: Q04DX003 (ip), vehicle: saline sonified); 94 % of control (endpoint: mean survival time, dose: 200.0 mg/kg/injection, schedule: Q04DX003 (ip), vehicle: saline sonified); 92 % of control (endpoint: mean survival time, dose: 400.0 mg/kg/injection, schedule: Q04DX003 (ip), vehicle: saline sonified).
As for `O=C(CNC(=O)Nc1cccc(C(F)(F)F)c1)N/N=C/c1ccco1`, the T/C (endpoint: mean survival time, dose: 50.0 mg/kg/injection, schedule: Q01DX009 (ip), vehicle: saline with Tween-80) is 92 % of control; the T/C under setting [4] is 92 % of control; the T/C under setting [5] was 88 % of control.
Consider `O=c1[nH]ccc2sccc12`, for which the T/C reads like this: under setting [4], 100 % of control; under setting [8], 96 % of control; under setting [5], 105 % of control; under setting [10], 103 % of control.
On to `O=C(O)C(=O)O.[Co].[NH-]CC[NH-].[NH-]CC[NH-]`, for which the T/C (endpoint: mean survival time, dose: 100.0 mg/kg/injection, schedule: Q04DX002 (ip), vehicle: saline) was 98 % of control.
With `Cc1ccc(NC(=O)NCCCCCCNC(=O)Nc2ccc(C)c(Cl)c2)cc1Cl`, the T/C runs as follows: under setting [13], 89 % of control; (endpoint: mean survival time, dose: 400.0 mg/kg/injection, schedule: Q01DX001 (ip), vehicle: saline with Tween-80) 91 % of control.
Take `BrC1=C(Br)C(Br)(Br)C(Br)=C1Br`: the T/C (endpoint: mean survival time, dose: 1.25 mg/kg/injection, schedule: Q01DX009 (ip), vehicle: saline with Tween-80) is 106 % of control; the T/C (endpoint: mean survival time, dose: 2.5 mg/kg/injection, schedule: Q01DX009 (ip), vehicle: saline with Tween-80) is 101 % of control; the T/C (endpoint: mean survival time, dose: 5.0 mg/kg/injection, schedule: Q01DX009 (ip), vehicle: saline with Tween-80) was 101 % of control.

(Values after PubChem BioAssay AID256 (DTP/NCI, 2004).)
